Experimental data as given in patent US20230302150A1, “ANTIBODY-TLR AGONIST CONJUGATES, METHODS AND USES THEREOF” (Ambrx, Inc., priority 2020, published 2023).
Like-named read-outs stand apart in the source and are kept apart here.

Target: T1, hTLR7 (Homo sapiens, UniProt Q9NYK1)
T1 construct: expressed in transfected cells; host or cells: HEK-Blue hTLR7 reporter cell line
T1 sequence (Q9NYK1 27-1049): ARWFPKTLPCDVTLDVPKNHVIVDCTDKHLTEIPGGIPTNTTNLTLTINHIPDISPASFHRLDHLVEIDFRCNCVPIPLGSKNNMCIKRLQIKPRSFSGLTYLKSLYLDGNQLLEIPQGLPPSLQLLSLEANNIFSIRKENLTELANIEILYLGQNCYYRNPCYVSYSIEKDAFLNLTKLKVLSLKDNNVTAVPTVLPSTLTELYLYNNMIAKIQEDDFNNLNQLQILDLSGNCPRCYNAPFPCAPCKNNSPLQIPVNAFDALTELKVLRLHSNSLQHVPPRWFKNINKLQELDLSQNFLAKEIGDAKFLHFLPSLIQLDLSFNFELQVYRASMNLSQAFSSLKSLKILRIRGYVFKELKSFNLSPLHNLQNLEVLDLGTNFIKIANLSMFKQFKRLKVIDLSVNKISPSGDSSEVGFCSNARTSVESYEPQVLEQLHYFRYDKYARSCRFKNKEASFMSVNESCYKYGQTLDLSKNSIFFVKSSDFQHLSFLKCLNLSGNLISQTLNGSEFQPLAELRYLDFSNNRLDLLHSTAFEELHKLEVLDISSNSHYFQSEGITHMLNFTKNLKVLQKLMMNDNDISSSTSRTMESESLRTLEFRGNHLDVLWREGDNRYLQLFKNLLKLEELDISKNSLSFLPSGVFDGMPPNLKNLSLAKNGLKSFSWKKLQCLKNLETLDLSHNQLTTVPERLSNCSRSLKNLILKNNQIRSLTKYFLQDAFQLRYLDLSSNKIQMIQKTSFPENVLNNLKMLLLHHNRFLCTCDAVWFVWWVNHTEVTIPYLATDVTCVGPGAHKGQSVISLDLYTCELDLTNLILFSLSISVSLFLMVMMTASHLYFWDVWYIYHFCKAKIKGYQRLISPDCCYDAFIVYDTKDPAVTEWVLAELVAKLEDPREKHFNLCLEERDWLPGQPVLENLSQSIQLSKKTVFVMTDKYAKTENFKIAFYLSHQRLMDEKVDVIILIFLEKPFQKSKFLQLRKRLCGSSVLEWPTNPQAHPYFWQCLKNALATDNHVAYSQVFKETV
Assay: HEK-Blue hTLR7 reporter assay (NF-kB-induced SEAP, Quanti-Blue)
Assay type: cell-based
Experimental: HEK-Blue™ hTLR7 cells were incubated in HEK-Blue™ Detection medium and stimulated with increasing concentrations of TLR7 or TLR8 or TLR7/8 agonists. […] The EC50 was determined from dose-response curve using Prism Software.

[1] = Table 19, TLR7, drug-linkers with PEG shielding, read-out: EC50
[2] = Table 11, TLR7 activities, read-out: EC50

## CCCCOc1nc(N)c2[nH]c(=O)n(Cc3ccc(CN4CCCCC4)cc3)c2n1 [AXC-894, 6-amino-2-butoxy-9-(4-(piperidin-1-ylmethyl)benzyl)-7H-purin-8(9H)-one]
Table 13, TLR7, read-out: EC50
  EC50: 1670 nM
Table 14, read-out: TLR7 EC50
  EC50: 2.1 nM
Text to Table 14, TLR7, read-out: EC50
  EC50: < 10 nM

## CCCCOc1nc(N)c2[nH]c(=O)n(Cc3ccc(CN4CCC(CCNC(=O)[C@H](CCCCNC(=O)CON)NC(=O)CCCC(=O)NCCOCCOCCOCCOCCC(=O)NC(COCCC(=O)NCCOCCOCCOCCOC)(COCCC(=O)NCCOCCOCCOCCOC)COCCC(=O)NCCOCCOCCOCCOC)CC4)cc3)c2n1 [AXC-938, (S)-N1-(1-((2-(1-(4-((6-amino-2-butoxy-8-oxo-7,8-dihydro-9H-purin-9-yl)methyl)benzyl)piperidin-4-yl)ethyl)amino)-6-(2-(aminooxy)acetamido)-1-oxohexan-2-yl)-N5-mPEG4-(PEG4)3-glutaramide]
[1]
  EC50: 644 nM

## CCCCOc1nc(N)c2[nH]c(=O)n(Cc3ccc(CN4CCC(CCNC(=O)OC(C)(C)C)CC4)cc3)c2n1 [AXC-877, tert-butyl 2-(1-(4-((6-amino-2-butoxy-8-oxo-7,8-dihydro-9H-purin-9-yl)methyl)benzyl)piperidin-4-yl)ethylcarbamate]
[2]
  EC50: 5.5 nM
Text to Table 11, TLR7, read-out: EC50
  EC50: < 10 nM

## CCCCOc1nc(N)c2[nH]c(=O)n(Cc3ccc(CN4CCC(CCN(CC(C)C)C(=O)CCOCCON)CC4)cc3)c2n1 [AXC-893, N-(2-(1-(4-((6-amino-2-butoxy-8-oxo-7H-purin-9(8H)-yl)methyl)benzyl)piperidin-4-yl)ethyl)-3-(2-(aminooxy)ethoxy)-N-isobutylpropanamide]
Table 13, TLR7, read-out: EC50
  EC50: 3120 nM

## CCCCOc1nc(N)c2[nH]c(=O)n(Cc3ccc(CN4CCC(CCNC(=O)[C@H](CCCCNC(=O)CON)NC(=O)CCOCCOCCOCCOCCOCCOCCOCCOCCOCCOCCOCCOCCOCCOCCOCCOCCOCCOCCOCCOCCOCCOCCOCCOC)CC4)cc3)c2n1 [AXC-924, (S)—N-(2-(1-(4-((6-amino-2-butoxy-8-oxo-7,8-dihydro-9H-purin-9-yl)methyl)benzyl)piperidin-4-yl)ethyl)-6-(2-(aminooxy)acetamido)-2-PEG24-amidohexanamide]
Table 18, TLR7, PEG shielding, read-out: EC50
  EC50: 398 nM

## CCCCOc1nc(N)c2[nH]c(=O)n(Cc3ccc(CN4CCC(CCON)CC4)cc3)c2n1 [AXC-979, 6-amino-9-(4-((4-(2-(aminooxy)ethyl)piperidin-1-yl)methyl)benzyl)-2-butoxy-7H-purin-8(9H)-one]
[1]
  EC50: 21.7 nM

## CCCCOc1nc(N)c2[nH]c(=O)n(Cc3ccc(CN4CCC(CCNC(=O)[C@@H](N)CO)CC4)cc3)c2n1 [AXC-933, (S)-2-amino-N-(2-(1-(4-((6-amino-2-butoxy-8-oxo-7,8-dihydro-9H-purin-9-yl)methyl)benzyl)piperidin-4-yl)ethyl)-3-hydroxypropanamide]
[1]
  EC50: 40 nM

## CCCCOc1nc(N)c2[nH]c(=O)n(Cc3ccc(CN4CCC(CCNC(=O)[C@@H](CCCCNC(=O)CCOCCOCCOCCOCCOCCOCCOCCOC)NC(=O)CON)CC4)cc3)c2n1 [AXC-962, (R)—N-(2-(1-(4-((6-amino-2-butoxy-8-oxo-7,8-dihydro-9H-purin-9-yl)methyl)benzyl)piperidin-4-yl)ethyl)-2-(2-(aminooxy)acetamido)-6-(PEG8)amidohexanamide]
[1]
  EC50: 453 nM

## CCCCc1nc2c(N)nc3cccnc3c2n1CCCCNC(=O)c1ccc(N)c(OC)c1 [AXC-736, 4-amino-N-(4-(4-amino-2-butyl-1H-imidazo[4,5-c][1,5]naphthyridin-1-yl)butyl)-3-methoxybenzamide]
Table 10, read-out: TLR7 EC50
  EC50: 213 nM

## CCCCOc1nc(N)c2[nH]c(=O)n(Cc3ccc(CN4CCC(CCNC(=O)[C@@H](N)Cn5cc(CON)nn5)CC4)cc3)c2n1 [AXC-932, (S)-2-amino-N-(2-(1-(4-((6-amino-2-butoxy-8-oxo-7,8-dihydro-9H-purin-9-yl)methyl)benzyl)piperidin-4-yl)ethyl)-3-(4-((aminooxy)methyl)-1H-1,2,3-triazol-1-yl)propanamide]
[1]
  EC50: 156 nM

## CCCCOc1nc(N)c2[nH]c(=O)n(Cc3ccc(CN4CCC(C5CCNCC5)CC4)cc3)c2n1 [AXC-898, 9-(4-(4,4′-bipiperidin-1-ylmethyl)benzyl)-6-amino-2-butoxy-7H-purin-8(9H)-oneone]
Table 13, TLR7, read-out: EC50
  EC50: 50 nM

## CCCCc1nc2c(N)nc3ccccc3c2n1CCCCNC(=O)c1cc(F)c(NC(=O)[C@H](CCCNC(N)=O)NC(=O)[C@@H](NC(=O)CON)C(C)C)c(F)c1 [AXC-801, N-(4-(4-amino-2-butyl-1H-imidazo[4,5-c]quinolin-1-yl)butyl)-4-((S)-2-((S)-2-(2-(aminooxy)acetamido)-3-methylbutanamido)-5-ureidopentanamido)-3,5-difluorobenzamide]
Table 10, read-out: TLR7 EC50
  EC50: > 5000 nM

## CCCCc1nc2c(N)nc3ccccc3c2n1CCCCNC(=O)c1ccc(N2CCCC2)cc1 [AXC-777, N-(4-(4-amino-2-butyl-1H-imidazo[4,5-c]quinolin-1-yl)butyl)-4-(pyrrolidin-1-yl)benzamide]
Table 10, read-out: TLR7 EC50
  EC50: 910 nM

## CCCCOc1nc(N)c2[nH]c(=O)n(Cc3ccc(CN4CCC(CCNC(=O)[C@H](CCCCN)NC(=O)CON)CC4)cc3)c2n1 [AXC-947, (S)-6-amino-N-(2-(1-(4-((6-amino-2-butoxy-8-oxo-7,8-dihydro-9H-purin-9-yl)methyl)benzyl)piperidin-4-yl)ethyl)-2-(2-(aminooxy)acetamido)hexanamide]
[1]
  EC50: 337 nM

## CCCCOc1nc(N)c2[nH]c(=O)n(Cc3ccc(CN4CCC(CCN)CC4)cc3)c2n1 [AXC-878, 6-amino-9-(4-((4-(2-aminoethyl)piperidin-1-yl)methyl)benzyl)-2-butoxy-7H-purin-8(9H)-one]
[2]
  EC50: 50.4 nM

## CCCCc1nc2c(N)nc3ccccc3c2n1CCCCNC(=O)c1ccc(F)c(N)c1 [AXC-804, 3-amino-N-(4-(4-amino-2-butyl-1H-imidazo[4,5-c]quinolin-1-yl)butyl)-4-fluorobenzamide]
Table 10, read-out: TLR7 EC50
  EC50: 260 nM

## CCCCOc1nc(N)c2[nH]c(=O)n(Cc3ccc(CN4CCC(CCNC(=O)[C@H](CCCCNC(=O)CON)NC(=O)CCOCCOCCOCCOCCOCCOCCOCCOC)CC4)cc3)c2n1 [AXC-937, (S)-2-PEG8-N-(2-(1-(4-((6-amino-2-butoxy-8-oxo-7,8-dihydro-9H-purin-9-yl)methyl)benzyl)piperidin-4-yl)ethyl)-6-(2-(aminooxy)acetamido)hexanamide]
[1]
  EC50: 456 nM

## CCCCCC(=O)Nc1nc(OCCCC)nc2c1[nH]c(=O)n2Cc1ccc(CN2CCC(CCNC(=O)CON)CC2)cc1 [AXC-965, N-(9-(4-((4-(2-(2-(aminooxy)acetamido)ethyl)piperidin-1-yl)methyl)benzyl)-2-butoxy-8-oxo-8,9-dihydro-7H-purin-6-yl)hexanamide]
[1]
  EC50: 48.3 nM

## CCCCOc1nc(N)c2[nH]c(=O)n(Cc3ccc(CN4CCC(c5ccc(N)cc5)CC4)cc3)c2n1 [AXC-908, 6-amino-9-(4-((4-(4-aminophenyl)piperidin-1-yl)methyl)benzyl)-2-butoxy-7H-purin-8(9H)-one]
Table 14, read-out: TLR7 EC50
  EC50: 11.5 nM

## CCCCOc1nc(N)c2[nH]c(=O)n(Cc3ccc(CN4CCC(CCNC(=O)[C@@H](N)Cc5ccc(Cn6cc(CON)nn6)cc5)CC4)cc3)c2n1 [AXC-931, (S)-2-amino-N-(2-(1-(4-((6-amino-2-butoxy-8-oxo-7,8-dihydro-9H-purin-9-yl)methyl)benzyl)piperidin-4-yl)ethyl)-3-(4-((4-((aminooxy)methyl)-1H-1,2,3-triazol-1-yl)methyl)phenyl)propanamide]
[1]
  EC50: 490 nM

## CCc1nc2c(N)nc3ccccc3c2n1CCCCNC(=O)/C=C/c1ccc(N(C)C)cc1 [AXC-739, (E)-N-(4-(4-amino-2-ethyl-1H-imidazo[4,5-c]quinolin-1-yl)butyl)-3-(4-(dimethylamino)phenyl)acrylamide]
Table 10, read-out: TLR7 EC50
  EC50: 28.2 nM

## CCCCOc1nc(N)c2[nH]c(=O)n(Cc3ccc(CN4CCC(CCNC(=O)[C@H](CCCCNC(=O)CCOCCOCCOCCOCCOCCOCCOCCOCCOCCOCCOCCOCCOCCOCCOCCOCCOCCOCCOCCOCCOCCOCCOCCOCCOCCOCCOCCOCCOCCOCCOCCOCCOCCOCCOCCOCCOC)NC(=O)CON)CC4)cc3)c2n1 [AXC-951, (S)—N-(2-(1-(4-((6-amino-2-butoxy-8-oxo-7,8-dihydro-9H-purin-9-yl)methyl)benzyl)piperidin-4-yl)ethyl)-2-(2-(aminooxy)acetamido)-6-(PEG37)hexanamide]
[1]
  EC50: 842 nM
